Laboratory results from PMC6567057, “Pharmacokinetic, metabolic stability, plasma protein binding and CYP450s inhibition/induction assessment studies of N-(2-pyridylmethyl)-2-hydroxiymethyl-1-pyrrolidinyl-4-(3-chloro-4-methoxy-benzylamino)-5-pyrimidine-carboxamide as potential type 5 phosphodiesterase inhibitors” (Animal Cells and Systems, 2019).
Read-outs that look alike come from different tables or passages of the source.

Experiments:
dog plasma proteins = assay: Plasma protein binding by equilibrium dialysis (dog); format: in vitro ADME, Beagle dog; settings: dog plasma, mean of 0.2 and 1 µM
Protocol: (§1) The phosphate buffer (100 mM) and sodium hydroxide solution (1.0 M) were prepared in deionized water. […] PPB was determined by equilibrium dialysis method. An aliquot (150 μL) of NHPPC spiked plasma and phosphate buffer (pH 7.4) was added into the donor side and the receiver side of each designated well. The plate was covered with adhesive sealing film to prevent evaporation and placed in a water-bath shaker kept at 37°C for 6 h with a rate of 50 rpm. […] At the end of 6 h, aliquots were taken from each side of each well (n = 3) and kept in a −20°C freezer prior to analysis. The stability, device recovery and PPB were calculated using the following equations: Remaining at 6 h (%)=C6h/C0h×100%, Device recovery (%)=CDonor+CReceiver/C6h×100%, PPB (%)=CDonor−CReceiver/CDonor×100%.

[1] = as above; format: in vitro ADME, Beagle dog; settings: beagle
Protocol: as §1

[2] = Stability in plasma, 6 h incubation at 37°C (human); format: in vitro ADME
Protocol: as §1

[3] = In vitro metabolic stability in dog liver microsomes; format: in vitro ADME; settings: for remaining at 1 h, 1 µM: liver microsomes, pH 7.4, dog liver microsomes, 60 min, read-out: percent remaining
Protocol: The phosphate buffer (pH 7.4, 100 mM) and (300 mM) were prepared in deionized water. NADP and IA were dissolved in phosphate buffer and MgCl2 solution and then added 20 μL IDH (18 units/mg protein) and mixed. NHPPC (1 mM) and positive control drug were prepared by dilution using DMSO and then the NHPPC and positive control drug working solution (50 μM) were obtained by dilution using methanol: H2O (1:1, v/v) mixture. Pooled human, rat and dog liver microsomes were added to phosphate buffer pH7.4 to a concentration 20 mg/mL. NHPPC was incubated with liver microsomes. The incubation solution of the final reaction conditions contained 50 mM potassium phosphate buffer (pH 7.4), 0.5 mg protein/mL microsomes, 3 mM MgCl2, 2 mM NADPH and 1 μM NHPPC or positive control drug in a final volume of 100 μL. In sample and positive control groups, NADPH was added into the incubation solutions. In the negative control group, water (the replacement of NADPH) was added into the incubation solutions. Samples were incubated aerobically in a shaking water bath at 37°C and the reaction was terminated by adding 300 μL of ice cold acetonitrile (contain 100 ng/mL IS) at different interval 0, 5, 10, 20, 30 and 60 min. While positive control and negative control were incubated aerobically in a shaking water bath at 37°C for 0 and 60 min, respectively. NHPPC and control concentrations were determined by LC-MS/MS at each time point (n = 3). Calculation of t1/2 and CLint was performed by using following equations, where K is the elimination rate constant (min^−1) and QH is hepatic blood flow (mL/min/kg). t1/2=0.693/KCLint,in vitro=VD×KVD=Volume of reaction mixture(mL)/mg of protein per reation.
Hepatic intrinsic clearance was estimated by using the scaling factors and calculated by using the following equation (Lave et al. [1997]). CLint,in vivo=CLint×mg microsomal protein per liver×g liver per kg body weight, Cint,H=CLint,in vivo×QH/CLint,in vivo+QH,EH=CLint,H/QH.

[4] = Stability in plasma, 6 h incubation at 37°C (dog); format: in vitro ADME; settings: beagle
Protocol: as §1

rabbit model = assay: Preliminary efficacy experiment of rabbit model in vivo; settings: compared with avanafil, data not published
[5] = In vivo pharmacokinetic study in dogs; parameters: species or system male Beagle dogs; settings: dog; for MRT inf: read-out: MRT0-∞
[6] = 0.2 µM, n = 3, read-out: Mean drug remaining %
[7] = 1 µM, n = 3, read-out: Mean drug remaining %
[8] = mean of 0.2 and 1 µM, read-out: Mean drug remaining %
[9] = male, Beagle, plasma, IV 1 mg/kg
[10] = male, Beagle, plasma, PO 1 mg/kg

COc1ccc(CNc2nc(N3CCC[C@H]3CO)ncc2C(=O)NCc2ccccn2)cc1Cl [NHPPC, N-(2-pyridylmethyl)-2-hydroxiymethyl-1-pyrrolidinyl-4-(3-chloro-4-methoxy-benzylamino)-5-pyrimidine-carboxamide]
Mean PPB % (dog plasma proteins): 99.6 ± 0.26% | fraction unbound at 6 h, 0.2 µM ([1]; dog, plasma, pH 7.4, dog plasma, 0.2 µM, equilibrium dialysis 6 h, read-out: Mean PPB % (converted)): 0.008 | fraction unbound at 6 h, 1 µM ([1]; dog, plasma, pH 7.4, dog plasma, 1 µM, equilibrium dialysis 6 h, read-out: Mean PPB %): 0.001 ± 3.8e-06 | recovery at 6 h, 0.2 μM ([1]; pH 7.4, dog plasma, equilibrium dialysis, n = 3, read-out: Mean device recovery %): 95.7 ± 0.3% | remaining at 6 h, 0.2 µM [2, 6]: 99.8 ± 1.37% | remaining at 6 h, 1 µM [2, 7]: 102 ± 1.5% | remaining at 6 h [2, 8]: 101 ± 1.23% | remaining at 1 h, 1 µM ([3]; dog, in the presence of NADPH, 1 μM): 0.8% | remaining at 1 h, 1 µM ([3]; dog, without NADPH regenerating system): 98.4% | CLH ([3]; dog, scaled from liver microsomes): 25.3 mL/min/kg | half-life at 1 µM ([3]; liver microsomes (pooled), pH 7.4, dog liver microsomes): 8.2 min | microsomal CLint at 1 µM ([3]; liver microsomes (pooled), pH 7.4, dog liver microsomes, read-out: CLint, ivtro): 120 µL/min/mg | k el at 1 µM ([3]; pH 7.4, dog liver microsomes, read-out: Ke (converted)): 0.0014 s⁻¹ | remaining at 6 h, 0.2 µM [4, 6]: 99.6 ± 0.53% | remaining at 6 h, 1 µM [4, 7]: 100.4 ± 0.98% | remaining at 6 h [4, 8]: 100 ± 1.24% | preliminary efficacy (rabbit model): stronger than avanafil | K10 ([5]; IV 1 mg/kg): 0.52 ± 0.03 h⁻¹ | K10 ([5]; PO 1 mg/kg): 0.45 ± 0.06 h⁻¹ | BA ([5]; PO 1 mg/kg vs IV 1 mg/kg, 1 mg/kg): 53.1 ± 14.2% | AUC(0-inf) [5, 9]: 685 ± 40 ng·h/mL | AUC(0-t) [5, 9]: 679 ± 38.5 ng·h/mL | clearance [5, 9]: 24.3 mL/min/kg | half-life [5, 9]: 1.33 ± 0.06 h | MRT inf [5, 9]: 1.15 ± 0.04 h | Vd ([5]; male, Beagle, plasma, IV 1 mg/kg, read-out: Vss): 1.68 ± 0.08 L/kg | AUC(0-inf) [5, 10]: 364 ± 97.4 ng·h/mL | AUC(0-t) [5, 10]: 351 ± 96.1 ng·h/mL | Cmax [5, 10]: 144 ± 35.3 ng/mL | Tmax [5, 10]: 0.5 h | half-life [5, 10]: 1.57 ± 0.22 h | MRT inf [5, 10]: 2.54 ± 0.15 h | Tmax ([5]; male, beagle, plasma, PO 1 mg/kg): 0.5 to 1 h
